The test system of one data set is mice. Kind of data set: Acute toxicity test of the peptide in mice. Format: in vivo. The following applies: 12.53 mg/kg intraperitoneal, single dose, inspected at 3rd, 6th, 12th and 24th hour, animals active on 14th day. As to the method: (§1) The safety of the peptide was tested with mice and rats at age of 4 to 6 weeks. The tests were conducted with five female mice and rats and five male mice and rats. The dose of the peptide injected intraperitoneal was 8.95 mg/kg for rats and 12.53 mg/kg for mice. The acute toxicity test was conducted at 3rd, 6th, 12th and 24th hour after exposure to the peptide. […] The animals were active still on 14th day.

A further data set is described as follows: physchem. It counts as physicochemical. The text has this: The molecular weight of the peptide is 2776 and 3388 with counter ions. The peptide is water-soluble and forms an alpha helical secondary protein structure.
The next data set has as its system rats. Description: Acute toxicity test of the peptide in rats. The following applies: 8.95 mg/kg intraperitoneal, single dose, inspected at 3rd, 6th, 12th and 24th hour, animals active on 14th day. It counts as in vivo. As to the method:
as §1

For orientation: solubility means the dissolved amount per volume that the medium holds. The low end stands for little dissolved substance, the high end for much dissolved substance.

Molecules are shown by their SMILES. Converted amounts (≈) assume the structure as drawn. Residues, ends and D or L forms follow the SMILES beside them.

As for `C[C@H](NC(=O)[C@H](Cc1ccccc1)NC(=O)[C@H](C)NC(=O)[C@H](Cc1ccccc1)NC(=O)[C@H](CCCCN)NC(=O)[C@H](C)NC(=O)[C@H](Cc1ccccc1)NC(=O)[C@H](CCCCN)NC(=O)[C@H](CCCCN)NC(=O)[C@H](C)NC(=O)[C@H](Cc1ccccc1)NC(=O)[C@H](CCCCN)NC(=O)[C@H](CCCCN)NC(=O)[C@H](Cc1ccccc1)NC(=O)[C@H](CCCCN)NC(=O)[C@H](CCCCN)NC(=O)[C@H](C)NC(=O)[C@H](Cc1ccccc1)NC(=O)[C@H](CCCCN)NC(=O)[C@H](CCCCN)NC(=O)[C@H](C)NC(=O)[C@@H](N)Cc1ccccc1)C(=O)N[C@@H](Cc1ccccc1)C(=O)O` [peptide] (H-FAKKFAKKFKKFAKKFAKFAFAF-OH; N-terminus and C-terminus assumed), the Acute lethality result in the data set on mice and in the data set with rats was “No lethality was found” each time. For the same molecule, the “Solubility in 10% DMSO in saline” value in the data set “physchem” is 32.25 mM (≈ 89.5 mg/mL). In “physchem” (saline or isotonic), this molecule showed a solubility of 31.6 mM (≈ 87.6 mg/mL).

For the origin of these results see patent publication US7288622B1, “Composition for treatment of burns and wounds” (Issar Pharmaceuticals Pvt Ltd, priority 2006, dated 2007).
